The values below come from patent US20230391739A1, “ARYL DERIVATIVES FOR TREATING TRPM3 MEDIATED DISORDERS” (Katholieke Universiteit Leuven, priority 2020, published 2023).

This assay concerns the target T1, mouse TRPM3α2 (mTRPM3) ion channel (Mus musculus, UniProt J9SQF3).
T1 construct: expressed in transfected cells; host or cells: flip-in HEK293
The experiment in a line: TRPM3 ion channel driven Ca2+ uptake, Fluo-4 AM assay, PS-stimulated (mTRPM3). The class given is cell-based. The settings on record: TRPM3 overexpressing flip-in HEK293 cells stimulated with Pregnenolone sulfate (PS) 50 μM, activity ranges A, B, C. A digest of the protocol:
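Flp-In HEK293 cells overexpressing mTRPM3α2 were added, in Ca²⁺-free Krebs, to wells already holding compound and 50 μM pregnenolone sulfate in Ca²⁺-containing Krebs. Fluo-4 AM fluorescence (ex 485/em 535 nm) was read immediately. Percent inhibition was computed from RFU relative to PS/vehicle wells and a positive-control inhibitor.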

T1 sequence (J9SQF3 1-1709 isoform J9SQF3-12): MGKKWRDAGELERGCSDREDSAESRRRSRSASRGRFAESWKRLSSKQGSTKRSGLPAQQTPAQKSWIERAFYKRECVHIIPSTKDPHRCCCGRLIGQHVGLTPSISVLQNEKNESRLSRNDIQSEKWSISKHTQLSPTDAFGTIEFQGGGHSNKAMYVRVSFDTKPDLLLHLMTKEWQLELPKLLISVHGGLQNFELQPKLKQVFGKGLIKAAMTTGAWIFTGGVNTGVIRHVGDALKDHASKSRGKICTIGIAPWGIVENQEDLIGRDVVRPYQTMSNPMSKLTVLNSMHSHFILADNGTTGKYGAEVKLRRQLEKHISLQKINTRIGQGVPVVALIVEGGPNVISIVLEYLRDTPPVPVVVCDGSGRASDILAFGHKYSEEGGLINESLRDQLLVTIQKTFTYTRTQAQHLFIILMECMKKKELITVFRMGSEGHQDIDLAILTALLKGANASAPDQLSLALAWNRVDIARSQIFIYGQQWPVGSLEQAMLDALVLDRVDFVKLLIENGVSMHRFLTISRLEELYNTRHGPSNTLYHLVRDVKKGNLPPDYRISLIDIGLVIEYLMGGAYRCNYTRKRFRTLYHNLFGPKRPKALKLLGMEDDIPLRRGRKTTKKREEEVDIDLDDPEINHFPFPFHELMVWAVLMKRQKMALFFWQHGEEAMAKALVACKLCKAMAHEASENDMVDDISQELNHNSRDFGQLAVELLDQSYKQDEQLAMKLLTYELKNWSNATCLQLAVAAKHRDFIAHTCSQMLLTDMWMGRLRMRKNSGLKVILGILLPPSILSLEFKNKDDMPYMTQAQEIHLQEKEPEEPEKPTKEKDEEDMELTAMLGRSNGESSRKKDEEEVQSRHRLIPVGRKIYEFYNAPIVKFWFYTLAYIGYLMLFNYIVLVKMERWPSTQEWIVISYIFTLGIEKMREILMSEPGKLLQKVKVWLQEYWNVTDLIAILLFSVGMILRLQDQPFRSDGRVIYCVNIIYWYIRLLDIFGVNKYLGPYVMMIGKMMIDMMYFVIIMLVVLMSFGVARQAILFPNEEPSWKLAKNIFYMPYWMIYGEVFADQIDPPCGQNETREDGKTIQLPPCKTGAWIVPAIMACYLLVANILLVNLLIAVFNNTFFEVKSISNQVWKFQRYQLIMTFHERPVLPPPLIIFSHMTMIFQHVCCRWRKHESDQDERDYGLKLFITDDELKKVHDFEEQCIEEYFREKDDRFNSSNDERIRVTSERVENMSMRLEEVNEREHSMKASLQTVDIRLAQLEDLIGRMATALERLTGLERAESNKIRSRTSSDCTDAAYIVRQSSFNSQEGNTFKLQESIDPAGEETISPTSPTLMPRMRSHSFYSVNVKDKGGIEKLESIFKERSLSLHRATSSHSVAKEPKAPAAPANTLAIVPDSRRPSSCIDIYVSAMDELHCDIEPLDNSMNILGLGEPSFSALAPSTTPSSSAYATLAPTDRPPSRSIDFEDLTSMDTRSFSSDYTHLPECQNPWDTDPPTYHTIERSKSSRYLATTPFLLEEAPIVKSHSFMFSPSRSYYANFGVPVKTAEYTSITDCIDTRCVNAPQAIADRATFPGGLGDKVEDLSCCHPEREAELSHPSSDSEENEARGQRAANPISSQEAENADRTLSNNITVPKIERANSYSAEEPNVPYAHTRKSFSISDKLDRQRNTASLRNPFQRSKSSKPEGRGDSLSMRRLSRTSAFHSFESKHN

In turn, `Cc1oc2ccc(OCc3ccccc3)cc2c1C(=O)NC1CCN(C(=O)OC(C)(C)C)CC1(F)F` (stereo not shown) [Cpd 263, tert-butyl 4-(5-(benzyloxy)-2-methylbenzofuran-3-carboxamido)-3,3-difluoropiperidine-1-carboxylate] yielded a half-maximal inhibitory concentration (IC50) below 1000 nM.

Take `Cc1oc2ccc(OCc3ccccc3)cc2c1C(=O)N[C@@H]1C[C@H]2COC[C@@H](C1)N2C(=O)OC(C)(C)C` [Cpd 265, tert-butyl (1R,5S,7r)-7-(5-(benzyloxy)-2-methylbenzofuran-3-carboxamido)-3-oxa-9-azabicyclo-[3.3.1]nonane-9-carboxylate]: the IC50 is above 20000 nM. Then `Cc1oc2ccc(OCc3ccccc3F)cc2c1C(=O)NC1(C(N)=O)COC1` [Cpd 309, N-(3-carbamoyloxetan-3-yl)-5-((2-fluorobenzyl)oxy)-2-methylbenzofuran-3-carboxamide], with below 1000 nM; and `Cc1oc2ccc(OCc3ccccc3F)cc2c1C(=O)NC1(CO)COC1` [Cpd 310, 5-((2-fluorobenzyl)oxy)-N-(3-(hydroxymethyl)oxetan-3-yl)-2-methylbenzofuran-3-carboxamide], with below 1000 nM; and `Cc1oc2ccc(OCc3ccccc3F)cc2c1C(=O)NC(C)(CO)CO` [Cpd 312, N-(1,3-dihydroxy-2-methylpropan-2-yl)-5-((2-fluorobenzyl)oxy)-2-methylbenzofuran-3-carboxamide], with below 1000 nM.

Consider `Cc1oc2ccc(OCc3ccccc3F)cc2c1C(=O)NC(C)(C)CO` [Cpd 313, 5-((2-fluorobenzyl)oxy)-N-(1-hydroxy-2-methylpropan-2-yl)-2-methylbenzofuran-3-carboxamide], for which the half-inhibitory concentration (IC50) is below 1000 nM.

`Cc1oc2ccc(OCc3ccccc3F)cc2c1C(=O)NC(C)(C)C(N)=O` [Cpd 315, N-(1-amino-2-methyl-1-oxopropan-2-yl)-5-((2-fluorobenzyl)oxy)-2-methylbenzofuran-3-carboxamide]: the IC50 was below 1000 nM.

Turning to `Cc1oc2ccc(OC(C)(C)c3ccccc3)cc2c1C(=O)NC1(CO)CCOCC1` [Cpd 316, N-(4-(hydroxymethyl)tetrahydro-2H-pyran-4-yl)-2-methyl-5-((2-phenylpropan-2-yl)oxy)benzofuran-3-carboxamide], the 50% inhibitory concentration (IC50) is below 1000 nM. On to `Cc1oc2ccc(COc3ccccc3F)cc2c1C(=O)NC(C)(C)CO` [Cpd 319, 5-((2-fluorophenoxy)methyl)-N-(1-hydroxy-2-methylpropan-2-yl)-2-methylbenzofuran-3-carboxamide], for which the IC50 was 1000 to 20000 nM.

Compound `Cc1oc2ccc(OCc3ccccc3F)cc2c1C(=O)NC1(C(N)=O)CCC1` [Cpd 322, N-(1-carbamoylcyclobutyl)-5-((2-fluorobenzyl)oxy)-2-methylbenzofuran-3-carboxamide] registered an IC50 below 1000 nM. In turn, `Cc1oc2ccc(OCc3ccccc3F)cc2c1C(=O)NC1(CO)CCC1` [Cpd 324, 5-((2-fluorobenzyl)oxy)-N-(1-(hydroxymethyl)cyclobutyl)-2-methylbenzofuran-3-carboxamide] displayed an IC50 below 1000 nM. Take `Cc1oc2ccc(OCc3ccccc3F)cc2c1C(=O)NC1(CO)CC1` [Cpd 325, 5-((2-fluorobenzyl)oxy)-N-(1-(hydroxymethyl)cyclopropyl)-2-methylbenzofuran-3-carboxamide]: the concentration for half-maximal inhibition (IC50) is below 1000 nM.

The compound `Cc1oc2ccc(OCc3ccccc3F)cc2c1C(=O)NC1(C(N)=O)CC1` [Cpd 326, N-(1-carbamoylcyclopropyl)-5-((2-fluorobenzyl)oxy)-2-methylbenzofuran-3-carboxamide] gave an IC50 below 1000 nM. Then `Cc1oc2ccc(OCc3ccccc3S(C)(=O)=O)cc2c1C(=O)NC1(CO)CCOCC1` [Cpd 332, N-(4-(hydroxymethyl)tetrahydro-2H-pyran-4-yl)-2-methyl-5-((2-(methylsulfonyl)benzyl)oxy)benzofuran-3-carboxamide], with 1000 to 20000 nM; and `Cc1oc2ccc(OCc3ccccc3)cc2c1C(=O)N[C@@H](CO)C(N)=O` [Cpd 337, (S)—N-(1-amino-3-hydroxy-1-oxopropan-2-yl)-5-(benzyloxy)-2-methylbenzofuran-3-carboxamide], with below 1000 nM.

In turn, `Cc1oc2ccc(OCc3ccccc3Cl)cc2c1C(=O)N[C@@H](CO)C(N)=O` [Cpd 338, (S)—N-(1-Amino-3-hydroxy-1-oxopropan-2-yl)-5-((2-chlorobenzyl)oxy)-2-methylbenzofuran-3-carboxamide] showed an IC50 below 1000 nM.

The compound `COc1ccccc1COc1ccc2oc(C)c(C(=O)N[C@@H](CO)C(N)=O)c2c1` [Cpd 339, (S)—N-(1-Amino-3-hydroxy-1-oxopropan-2-yl)-5-((2-methoxybenzyl)oxy)-2-methylbenzofuran-3-carboxamide] returned an IC50 below 1000 nM. With `Cc1oc2ccc(OCc3ccc(F)cc3F)cc2c1C(=O)N[C@@H](CO)C(N)=O` [Cpd 340, (S)—N-(1-amino-3-hydroxy-1-oxopropan-2-yl)-5-((2,4-difluorobenzyl)oxy)-2-methylbenzofuran-3-carboxamide] the figure was below 1000 nM. Then `Cc1ccc(COc2ccc3oc(C)c(C(=O)N[C@@H](CO)C(N)=O)c3c2)c(F)c1` [Cpd 342, (S)—N-(1-amino-3-hydroxy-1-oxopropan-2-yl)-5-((2-fluoro-4-methylbenzyl)oxy)-2-methylbenzofuran-3-carboxamide], with below 1000 nM.

What is called IC50 is the midpoint of a concentration-inhibition curve. High values mean weaker potency in that assay, low ones greater potency in that assay.
